According to US20240174662A1, “SMALL MOLECULE INHIBITORS OF SALT INDUCIBLE KINASES” (Janssen Biotech, Inc., priority 2021, published 2024):

target: SIK2 (Homo sapiens (Human), UniProt Q9H0K1); test: SIK2 Enzymatic Assay Version 2 (High ATP); type: biochemical; settings: 3 mM ATP and 200 μM HDAC5tide final, ADP-Glo Max luminescence
Method in brief: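 Luminescent ADP-Glo Max read-out: depletion reagent 2 h, then detection reagent 1 h. Before the reaction, compounds were incubated 30 min with enzyme added at 6 nM (twice final concentration), with all steps at room temperature.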

Chain of SIK2 (Q9H0K1 whole entry, species assumed): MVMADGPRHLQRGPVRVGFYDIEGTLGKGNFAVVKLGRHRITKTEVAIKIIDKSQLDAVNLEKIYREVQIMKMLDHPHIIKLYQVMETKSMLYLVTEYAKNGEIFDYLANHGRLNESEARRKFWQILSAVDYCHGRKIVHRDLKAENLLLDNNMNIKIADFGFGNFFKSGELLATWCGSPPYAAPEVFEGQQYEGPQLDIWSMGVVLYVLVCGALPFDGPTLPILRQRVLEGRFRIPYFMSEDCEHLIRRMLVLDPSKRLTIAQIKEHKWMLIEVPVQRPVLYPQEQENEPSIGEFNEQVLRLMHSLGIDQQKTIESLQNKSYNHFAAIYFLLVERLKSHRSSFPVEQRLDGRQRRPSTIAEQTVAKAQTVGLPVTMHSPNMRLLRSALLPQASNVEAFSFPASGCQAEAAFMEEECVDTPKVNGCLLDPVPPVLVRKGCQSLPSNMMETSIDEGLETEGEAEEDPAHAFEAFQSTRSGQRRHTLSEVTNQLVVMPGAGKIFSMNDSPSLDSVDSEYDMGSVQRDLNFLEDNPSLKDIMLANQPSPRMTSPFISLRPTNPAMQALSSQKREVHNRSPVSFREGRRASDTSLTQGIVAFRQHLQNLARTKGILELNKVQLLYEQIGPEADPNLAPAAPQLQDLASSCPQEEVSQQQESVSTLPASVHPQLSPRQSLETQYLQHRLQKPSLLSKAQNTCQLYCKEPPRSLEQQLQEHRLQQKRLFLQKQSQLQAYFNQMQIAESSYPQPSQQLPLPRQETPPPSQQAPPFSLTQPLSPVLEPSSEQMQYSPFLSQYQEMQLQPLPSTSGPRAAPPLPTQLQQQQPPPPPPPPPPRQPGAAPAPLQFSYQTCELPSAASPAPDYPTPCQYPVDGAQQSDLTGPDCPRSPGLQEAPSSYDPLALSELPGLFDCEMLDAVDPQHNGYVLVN

| SMILES | IC50 |
| --- | --- |
| CCN1CC[C@@H]1COc1cnn(C)c1-c1ccn2nc(Nc3ncc(C)c(C)n3)cc2c1 [Example 165, N-(4,5-dimethylpyrimidin-2-yl)-5-[4-[[(2R)-1-ethylazetidin-2-yl]methoxy]-2-methyl-pyrazol-3-yl]pyrazolo[1,5-a]pyridin-2-amine] | 26.2 nM |
| CCN1CC[C@@H]1COc1cnn(C)c1-c1ccn2nc(Nc3ccc(OC)cn3)cc2c1 [Example 166, 5-[4-[[(2R)-1-ethylazetidin-2-yl]methoxy]-2-methyl-pyrazol-3-yl]-N-(5-methoxy-2-pyridyl)pyrazolo[1,5-a]pyridin-2-amine] | 1.8 nM |
| CCN1CC[C@@H]1COc1cnn(C)c1-c1ccn2nc(Nc3cc(OC)ncn3)cc2c1 [Example 167, 5-[4-[[(2R)-1-ethylazetidin-2-yl]methoxy]-2-methyl-pyrazol-3-yl]-N-(6-methoxypyrimidin-4-yl)pyrazolo[1,5-a]pyridin-2-amine] | 2.7 nM |
| CCN1CC[C@H]1COc1cnn(C)c1-c1ccn2nc(Nc3cc(C)nc(C(F)(F)F)n3)cc2c1 [Example 168, 5-[4-[[(2S)-1-ethylazetidin-2-yl]methoxy]-2-methyl-pyrazol-3-yl]-N-[6-methyl-2-(trifluoromethyl)pyrimidin-4-yl]pyrazolo[1,5-a]pyridin-2-amine] | 23 nM |
| CCc1cc(Nc2cc3cc(-c4c(OC[C@@H]5CCN5CC)cnn4C)ccn3n2)nc(C)n1 [Example 169, 5-[4-[[(2S)-1-ethylazetidin-2-yl]methoxy]-2-methyl-pyrazol-3-yl]-N-(6-ethyl-2-methyl-pyrimidin-4-yl)pyrazolo[1,5-a]pyridin-2-amine] | 38.7 nM |
| CCN1CC[C@@H]1COc1cnn(C)c1-c1ccn2nc(Nc3ccc(=O)n(C)n3)cc2c1 [Example 170, 6-[[5-[4-[[(2R)-1-ethylazetidin-2-yl]methoxy]-2-methyl-pyrazol-3-yl]pyrazolo[1,5-a]pyridin-2-yl]amino]-2-methyl-pyridazin-3-one] | 0.9 nM |
| CCN1CC[C@@H]1COc1cnn(C)c1-c1ccn2nc(Nc3cc(C)nc(C4CC4)n3)cc2c1 [Example 171, N-(2-cyclopropyl-6-methyl-pyrimidin-4-yl)-5-[4-[[(2R)-1-ethylazetidin-2-yl]methoxy]-2-methyl-pyrazol-3-yl]pyrazolo[1,5-a]pyridin-2-amine] | < 0.847 nM |
| CCc1cc(Nc2cc3cc(-c4c(OC[C@H]5CCN5CC)cnn4C)ccn3n2)nc(C)n1 [Example 172, 5-[4-[[(2R)-1-ethylazetidin-2-yl]methoxy]-2-methyl-pyrazol-3-yl]-N-(6-ethyl-2-methyl-pyrimidin-4-yl)pyrazolo[1,5-a]pyridin-2-amine] | < 0.847 nM |
| CCN1CC[C@@H]1COc1cnn(C)c1-c1ccn2nc(Nc3cc(C)nc(OC)n3)cc2c1 [Example 173, 5-[4-[[(2R)-1-ethylazetidin-2-yl]methoxy]-2-methyl-pyrazol-3-yl]-N-(2-methoxy-6-methyl-pyrimidin-4-yl)pyrazolo[1,5-a]pyridin-2-amine] | < 0.847 nM |
| CCN1CC[C@@H]1COc1cnn(C)c1-c1ccn2nc(Nc3ccc4nc(C)cn4n3)cc2c1 [Example 174, N-[5-[4-[[(2R)-1-ethylazetidin-2-yl]methoxy]-2-methyl-pyrazol-3-yl]pyrazolo[1,5-a]pyridin-2-yl]-2-methyl-imidazo[1,2-b]pyridazin-6-amine] | < 0.847 nM |
| CCN1CC[C@@H]1COc1cnn(C)c1-c1ccn2nc(Nc3ccc4nccn4n3)cc2c1 [Example 175, N-[5-[4-[[(2R)-1-ethylazetidin-2-yl]methoxy]-2-methyl-pyrazol-3-yl]pyrazolo[1,5-a]pyridin-2-yl]imidazo[1,2-b]pyridazin-6-amine] | < 0.847 nM |
| CCN1CC[C@@H]1COc1cnn(C)c1-c1ccn2nc(Nc3ncc(F)cn3)cc2c1 [Example 176, (R)-5-(4-((1-ethylazetidin-2-yl)methoxy)-1-methyl-1H-pyrazol-5-yl)-N-(5-fluoropyrimidin-2-yl)pyrazolo[1,5-a]pyridin-2-amine] | 72.7 nM |
| CCN1CC[C@@H]1COc1cnn(C)c1-c1ccn2nc(Nc3cc(C)nc(C(C)(C)C)n3)cc2c1 [Example 177, N-(2-tert-butyl-6-methyl-pyrimidin-4-yl)-5-[4-[[(2R)-1-ethylazetidin-2-yl]methoxy]-2-methyl-pyrazol-3-yl]pyrazolo[1,5-a]pyridin-2-amine] | 1.5 nM |
| CCN1CC[C@@H]1COc1cnn(C)c1-c1ccn2nc(Nc3cc(C)c(=O)n(C)n3)cc2c1 [Example 178, 6-[[5-[4-[[(2R)-1-ethylazetidin-2-yl]methoxy]-2-methyl-pyrazol-3-yl]pyrazolo[1,5-a]pyridin-2-yl]amino]-2,4-dimethyl-pyridazin-3-one] | < 0.847 nM |
| CCN1CC[C@@H]1COc1cnn(C)c1-c1ccn2nc(Nc3cc(C)nc(CC4CC4)n3)cc2c1 [Example 179, N-[2-(cyclopropylmethyl)-6-methyl-pyrimidin-4-yl]-5-[4-[[(2R)-1-ethylazetidin-2-yl]methoxy]-2-methyl-pyrazol-3-yl]pyrazolo[1,5-a]pyridin-2-amine] | < 0.847 nM |
| CCN1CC[C@@H]1COc1cnn(C)c1-c1ccn2nc(Nc3cnc(OC)cn3)cc2c1 [Example 180, 5-[4-[[(2R)-1-ethylazetidin-2-yl]methoxy]-2-methyl-pyrazol-3-yl]-N-(5-methoxypyrazin-2-yl)pyrazolo[1,5-a]pyridin-2-amine] | 2.1 nM |
| CCN1CC[C@@H]1COc1cnn(C)c1-c1ccn2nc(Nc3cnc(OC(F)F)cn3)cc2c1 [Example 181, N-[5-(difluoromethoxy)pyrazin-2-yl]-5-[4-[[(2R)-1-ethylazetidin-2-yl]methoxy]-2-methyl-pyrazol-3-yl]pyrazolo[1,5-a]pyridin-2-amine] | 2.2 nM |
| Cn1ncc(CO[C@@H]2CCNC2)c1-c1ccn2nc(NC(=O)C3CC3)cc2c1 [Example 182, N-[5-[2-methyl-4-[[(3R)-pyrrolidin-3-yl]oxymethyl]pyrazol-3-yl]pyrazolo[1,5-a]pyridin-2-yl]cyclopropanecarboxamide] | 34.4 nM |
| Cn1ncc(CO[C@H]2C[C@H]3COC[C@@H](C2)N3)c1-c1ccn2nc(NC(=O)C3CC3)cc2c1 [Example 183, N-[5-[2-methyl-4-[[(1S,5R)-3-oxa-9-azabicyclo[3.3.1]nonan-7-yl]oxymethyl]pyrazol-3-yl]pyrazolo[1,5-a]pyridin-2-yl]cyclopropanecarboxamide] | 11.7 nM |
| CN1[C@@H]2COC[C@H]1C[C@@H](OCc1cnn(C)c1-c1ccn3nc(NC(=O)C4CC4)cc3c1)C2 [Example 185, N-[5-[2-methyl-4-[[(1S,5R)-9-methyl-3-oxa-9-azabicyclo[3.3.1]nonan-7-yl]oxymethyl]pyrazol-3-yl]pyrazolo[1,5-a]pyridin-2-yl]cyclopropanecarboxamide] | 18.3 nM |
| Cn1ncc(COC2(C(F)(F)F)CNC2)c1-c1ccn2nc(NC(=O)C3CC3)cc2c1 [Example 186, N-[5-[2-methyl-4-[[3-(trifluoromethyl)azetidin-3-yl]oxymethyl]pyrazol-3-yl]pyrazolo[1,5-a]pyridin-2-yl]cyclopropanecarboxamide] | 7.3 nM |
| C[C@@H]1NC[C@H]1OCc1cnn(C)c1-c1ccn2nc(NC(=O)C3CC3)cc2c1 [Example 187, N-[5-[2-methyl-4-[[(2S,3R)-2-methylazetidin-3-yl]oxymethyl]pyrazol-3-yl]pyrazolo[1,5-a]pyridin-2-yl]cyclopropanecarboxamide] | 23.5 nM |
| Cn1ncc(CO[C@@H]2CNC[C@@H]2F)c1-c1ccn2nc(NC(=O)C3CC3)cc2c1 [Example 188, N-[5-[4-[[(3R,4S)-4-fluoropyrrolidin-3-yl]oxymethyl]-2-methyl-pyrazol-3-yl]pyrazolo[1,5-a]pyridin-2-yl]cyclopropanecarboxamide] | 7.7 nM |
| C[C@H]1[C@H](OCc2cnn(C)c2-c2ccn3nc(NC(=O)C4CC4)cc3c2)CN1C [Example 190, N-[5-[4-[[(2S,3R)-1,2-dimethylazetidin-3-yl]oxymethyl]-2-methyl-pyrazol-3-yl]pyrazolo[1,5-a]pyridin-2-yl]cyclopropanecarboxamide] | 26.5 nM |
| Cn1ncc(COC2(C)CNC2)c1-c1ccn2nc(NC(=O)C3CC3)cc2c1 [Example 191, N-[5-[2-methyl-4-[(3-methylazetidin-3-yl)oxymethyl]pyrazol-3-yl]pyrazolo[1,5-a]pyridin-2-yl]cyclopropanecarboxamide] | 11.3 nM |
| CN1CC(C)(OCc2cnn(C)c2-c2ccn3nc(NC(=O)C4CC4)cc3c2)C1 [Example 192, N-[5-[4-[(1,3-dimethylazetidin-3-yl)oxymethyl]-2-methyl-pyrazol-3-yl]pyrazolo[1,5-a]pyridin-2-yl]cyclopropanecarboxamide] | 19.6 nM |
| CCC1(OCc2cnn(C)c2-c2ccn3nc(NC(=O)C4CC4)cc3c2)CNC1 [Example 193, N-[5-[4-[(3-ethylazetidin-3-yl)oxymethyl]-2-methyl-pyrazol-3-yl]pyrazolo[1,5-a]pyridin-2-yl]cyclopropanecarboxamide] | 21.2 nM |
| Cc1onc(OCC2(C(N)=O)CNC2)c1-c1ccn2nc(NC(=O)C3CC3)cc2c1 [Example 198, 3-[[4-[2-(cyclopropanecarbonylamino)pyrazolo[1,5-a]pyridin-5-yl]-5-methyl-isoxazol-3-yl]oxymethyl]azetidine-3-carboxamide] | 28.7 nM |
| Cc1onc(OCC2(c3ccccc3)CNC2)c1-c1ccn2nc(NC(=O)C3CC3)cc2c1 [Example 199, N-[5-[5-methyl-3-[(3-phenylazetidin-3-yl)methoxy]isoxazol-4-yl]pyrazolo[1,5-a]pyridin-2-yl]cyclopropanecarboxamide] | 14.1 nM |
| Cc1onc(OC[C@@]23CN[C@@H](CO2)C3)c1-c1ccn2nc(NC(=O)C3CC3)cc2c1 [Example 201, N-[5-[5-methyl-3-[[(1R,4R)-5-oxa-2-azabicyclo[2.2.1]heptan-4-yl]methoxy]isoxazol-4-yl]pyrazolo[1,5-a]pyridin-2-yl]cyclopropanecarboxamide] | 42.1 nM |
